Source: patent publication US9278912B2, “C13-hydroxy derivatives of oleanolic acid and methods of use thereof” (priority 2012, dated 2016)

These compounds were tested on IFNγ-induced NO production in RAW264.7 mouse macrophages (assay: Suppression of IFNγ-induced NO production (Nitric Oxide Production and Cell Viability Assay)). Conditions: RAW264.7 cells, 2 h pretreatment, then IFNγ 24 h, Griess reagent, normalized to cell viability (WST-1).
Type: cell-based
Experimental: Assay results for the suppression of IFNγ-induced NO production are shown for several of the compounds of the present invention in Table 1 below. In the right-hand column of this table under the RAW264.7 heading, the results are compared to those of bardoxolone methyl (RTA 402, CDDO-Me). Details regarding this assay are provided in the Examples section below. Nitric Oxide Production and Cell Viability Assay. […] On the next day, cells were pretreated with DMSO or drug (0-200 nM dose range) for 2 hours, and then treated with recombinant mouse IFNγ (R&D Systems) for 24 hours. Nitric Oxide concentration in media was determined using the Griess reagent system (Promega). Cell viability was determined using WST-1 reagent (Roche). IC50 values were determined based on the suppression of IFNγ induced Nitric Oxide production normalized to cell viability.

SMILES	IC50 [nM]
CCCCC1O[C@]23C(=O)C=C4[C@@]5(C)C=C(C#N)C(=O)C(C)(C)[C@@H]5CC[C@@]4(C)[C@]2(C)CC[C@]12CCC(C)(C)C[C@H]23 (stereo partly shown) [TX63484]	37
CC1(C)CC[C@]2(CO)CC[C@]3(C)[C@](O)([C@H](O)C=C4[C@@]5(C)C=C(C#N)C(=O)C(C)(C)[C@@H]5CC[C@]43C)[C@@H]2C1 [TX63489]	61
CC1(C)CC[C@]2(CO)CC[C@@]3(C)[C@]4(C)CC[C@H]5C(C)(C)C(=O)C(C#N)=C[C@]5(C)C4=CC(=O)[C@]3(O)[C@@H]2C1 [TX63490]	1.5
CC(=O)OC[C@]12CCC(C)(C)C[C@H]1[C@@]1(O)[C@H](OC(C)=O)C=C3[C@@]4(C)C=C(C#N)C(=O)C(C)(C)[C@@H]4CC[C@@]3(C)[C@]1(C)CC2 [TX63498]	24
CC1(C)CC[C@]2(C(N)=O)CC[C@@]3(C)[C@]4(C)CC[C@H]5C(C)(C)C(=O)C(C#N)=C[C@]5(C)C4=CC(=O)[C@]3(O)[C@@H]2C1 [TX63530]	1.4
CCNC(=O)[C@]12CCC(C)(C)C[C@H]1[C@@]1(O)C(=O)C=C3[C@@]4(C)C=C(C#N)C(=O)C(C)(C)[C@@H]4CC[C@@]3(C)[C@]1(C)CC2 [TX63536]	5.6
CC(C)C1O[C@]23C(=O)C=C4[C@@]5(C)C=C(C#N)C(=O)C(C)(C)[C@@H]5CC[C@@]4(C)[C@]2(C)CC[C@]12CCC(C)(C)C[C@H]23 (stereo partly shown) [TX63496]	37
CCOC(=O)[C@]12CCC(C)(C)C[C@H]1[C@@]1(O)C(=O)C=C3[C@@]4(C)C=C(C#N)C(=O)C(C)(C)[C@@H]4CC[C@@]3(C)[C@]1(C)CC2 [TX63469]	2.2
CC(=O)OC[C@]12CCC(C)(C)C[C@H]1[C@@]1(O)C(=O)C=C3[C@@]4(C)C=C(C#N)C(=O)C(C)(C)[C@@H]4CC[C@@]3(C)[C@]1(C)CC2 [TX63499]	2.1
COC(=O)[C@]12CCC(C)(C)C[C@H]1[C@@]1(O)C(=O)C=C3[C@@]4(C)C=C(C#N)C(=O)C(C)(C)[C@@H]4CC[C@@]3(C)[C@]1(C)CC2 [TX63421]	2.3
